The results in this text go back to patent US9579314B2 (priority 2015, dated 2017).

One experiment deals with Human M3 receptor (Homo sapiens, UniProt P20309). The conditions noted are these: read-out: M3 binding affinity.
A further experiment deals with Human β2 adrenoceptor (Homo sapiens, UniProt P07550). The following applies: read-out: B2 binding affinity.

Bounds are passed on as bounds.

Chain of Human M3 receptor (P20309 whole entry): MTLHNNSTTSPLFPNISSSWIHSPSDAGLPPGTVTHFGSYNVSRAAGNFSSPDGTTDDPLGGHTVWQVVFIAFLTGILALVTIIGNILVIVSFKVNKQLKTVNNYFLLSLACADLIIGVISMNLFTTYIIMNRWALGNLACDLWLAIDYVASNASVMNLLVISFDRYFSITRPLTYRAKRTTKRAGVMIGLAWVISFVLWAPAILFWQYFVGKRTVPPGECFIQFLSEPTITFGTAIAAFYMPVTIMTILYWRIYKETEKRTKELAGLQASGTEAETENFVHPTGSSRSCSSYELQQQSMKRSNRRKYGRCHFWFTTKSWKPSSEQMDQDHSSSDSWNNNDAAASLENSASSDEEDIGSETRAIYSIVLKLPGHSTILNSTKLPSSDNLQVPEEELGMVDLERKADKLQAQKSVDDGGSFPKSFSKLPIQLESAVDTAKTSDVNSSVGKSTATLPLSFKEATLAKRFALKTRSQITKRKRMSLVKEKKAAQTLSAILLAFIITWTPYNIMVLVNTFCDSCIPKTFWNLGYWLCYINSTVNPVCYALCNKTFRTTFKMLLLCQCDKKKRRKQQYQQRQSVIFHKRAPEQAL
Chain of Human β2 adrenoceptor (P07550 whole entry): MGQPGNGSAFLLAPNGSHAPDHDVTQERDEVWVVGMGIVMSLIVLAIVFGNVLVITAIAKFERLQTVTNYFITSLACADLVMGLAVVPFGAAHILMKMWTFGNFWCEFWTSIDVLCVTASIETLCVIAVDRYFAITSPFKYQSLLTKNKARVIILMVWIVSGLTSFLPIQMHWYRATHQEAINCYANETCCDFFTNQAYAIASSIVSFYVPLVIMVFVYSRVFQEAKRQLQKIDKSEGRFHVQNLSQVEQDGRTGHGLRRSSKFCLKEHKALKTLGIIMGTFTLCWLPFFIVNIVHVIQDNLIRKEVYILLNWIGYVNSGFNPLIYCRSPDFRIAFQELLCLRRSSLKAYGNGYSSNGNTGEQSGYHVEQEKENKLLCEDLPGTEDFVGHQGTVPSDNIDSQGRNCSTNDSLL

On to `O=C(N[C@H]1CCN(C(=O)COc2cccc([C@](O)(C(=O)OCC3CCN(Cc4ccccc4)CC3)c3ccccc3)c2)C1)c1ccc(CNC[C@H](O)c2ccc(O)c3[nH]c(=O)ccc23)cc1` [Compound 73, (1-benzylpiperidin-4-yl)methyl (S)-2-hydroxy-2-(3-(2-((S)-3-(4-((((R)-2-hydroxy-2-(8-hydroxy-2-oxo-1,2-dihydroquinolin-5-yl)ethyl)amino)methyl)benzamido)pyrrolidin-1-yl)-2-oxoethoxy)phenyl)-2-phenylacetate], for which the IC50 at Human M3 receptor is 0.3 to 3 nM; on Human β2 adrenoceptor it was < 0.3 nM.

Turning to `O=C(c1ccc(CNC[C@H](O)c2ccc(O)c3[nH]c(=O)ccc23)cc1)N1C[C@H]2CCN(C(=O)COc3cccc([C@](O)(C(=O)OCC4CCN(Cc5ccccc5)CC4)c4ccccc4)c3)[C@H]2C1` [Compound 74, (1-benzylpiperidin-4-yl)methyl (S)-2-hydroxy-2-(3-(2-((3aR,6aR)-5-(4-((((R)-2-hydroxy-2-(8-hydroxy-2-oxo-1,2-dihydroquinolin-5-yl)ethyl)amino)methyl)benzoyl)hexahydropyrrolo[3,4-b]pyrrol-1(2H)-yl)-2-oxoethoxy)phenyl)-2-phenylacetate], the IC50 on Human M3 receptor and on Human β2 adrenoceptor was 0.3 to 3 nM throughout.

`O=C(N[C@@H]1CCCN(C(=O)COc2cccc([C@](O)(C(=O)OCC3CCN(Cc4ccccc4)CC3)c3ccccc3)c2)C1)c1ccc(CNC[C@H](O)c2ccc(O)c3[nH]c(=O)ccc23)cc1` [Compound 75, (1-benzylpiperidin-4-yl)methyl (S)-2-hydroxy-2-(3-(2-((R)-3-(4-((((R)-2-hydroxy-2-(8-hydroxy-2-oxo-1,2-dihydroquinolin-5-yl)ethyl)amino)methyl)benzamido)piperidin-1-yl)-2-oxoethoxy)phenyl)-2-phenylacetate]: the IC50 on Human M3 receptor is 0.3 to 3 nM; on Human β2 adrenoceptor it was > 3 nM.

As for `O=C(N[C@@H]1CCN(C(=O)COc2cccc([C@](O)(C(=O)OCC3CCN(Cc4ccccc4)CC3)c3ccccc3)c2)C1)c1ccc(CNC[C@H](O)c2ccc(O)c3[nH]c(=O)ccc23)cc1` [Compound 76, (1-benzylpiperidin-4-yl)methyl (S)-2-hydroxy-2-(3-(2-((R)-3-(4-((((R)-2-hydroxy-2-(8-hydroxy-2-oxo-1,2-dihydroquinolin-5-yl)ethyl)amino)methyl)benzamido)pyrrolidin-1-yl)-2-oxoethoxy)phenyl)-2-phenylacetate], the IC50 on Human M3 receptor and on Human β2 adrenoceptor was 0.3 to 3 nM in each case.

As to `O=C(c1ccc(CNC[C@H](O)c2ccc(O)c3[nH]c(=O)ccc23)cc1)N1C[C@@H]2CCN(C(=O)COc3cccc([C@](O)(C(=O)OCC4CCN(Cc5ccccc5)CC4)c4ccccc4)c3)[C@@H]2C1` [Compound 77, (1-benzylpiperidin-4-yl)methyl (S)-2-hydroxy-2-(3-(2-((3aS,6aS)-5-(4-((((R)-2-hydroxy-2-(8-hydroxy-2-oxo-1,2-dihydroquinolin-5-yl)ethyl)amino)methyl)benzoyl)hexahydropyrrolo[3,4-b]pyrrol-1(2H)-yl)-2-oxoethoxy)phenyl)-2-phenylacetate], the IC50 at Human M3 receptor and on Human β2 adrenoceptor was 0.3 to 3 nM throughout.

Consider `COc1cc(C(=O)N2CC(NC(=O)COc3cccc([C@](O)(C(=O)OCC4CCN(Cc5ccccc5)CC4)c4ccccc4)c3)C2)ccc1CNC[C@H](O)c1ccc(O)c2[nH]c(=O)ccc12` [Compound 78, (1-benzylpiperidin-4-yl)methyl (S)-2-hydroxy-2-(3-(2-((1-(4-((((R)-2-hydroxy-2-(8-hydroxy-2-oxo-1,2-dihydroquinolin-5-yl)ethyl)amino)methyl)-3-methoxybenzoyl)azetidin-3-yl)amino)-2-oxoethoxy)phenyl)-2-phenylacetate], for which the IC50 at Human M3 receptor and on Human β2 adrenoceptor was < 0.3 nM throughout.

Regarding `COc1cc(C(=O)N2CCC3(CCN(C(=O)COc4cccc([C@](O)(C(=O)OCC5CCN(Cc6ccccc6)CC5)c5ccccc5)c4)CC3)CC2)ccc1CNC[C@H](O)c1ccc(O)c2[nH]c(=O)ccc12` [Compound 79, (1-benzylpiperidin-4-yl)methyl (S)-2-hydroxy-2-(3-(2-(9-(4-((((R)-2-hydroxy-2-(8-hydroxy-2-oxo-1,2-dihydroquinolin-5-yl)ethyl)amino)methyl)-3-methoxybenzoyl)-3,9-diazaspiro[5.5]undecan-3-yl)-2-oxoethoxy)phenyl)-2-phenylacetate], the IC50 on Human M3 receptor and on Human β2 adrenoceptor was < 0.3 nM in each case.

In the case of `COc1cc(C(=O)NCC2CCN(C(=O)COc3cccc([C@](O)(C(=O)OCC4CCN(Cc5ccccc5)CC4)c4ccccc4)c3)CC2)ccc1CNC[C@H](O)c1ccc(O)c2[nH]c(=O)ccc12` [Compound 80, (1-benzylpiperidin-4-yl)methyl (S)-2-hydroxy-2-(3-(2-(4-((4-((((R)-2-hydroxy-2-(8-hydroxy-2-oxo-1,2-dihydroquinolin-5-yl)ethyl)amino)methyl)-3-methoxybenzamido)methyl)piperidin-1-yl)-2-oxoethoxy)phenyl)-2-phenylacetate], the IC50 was 0.3 to 3 nM on Human M3 receptor and < 0.3 nM at Human β2 adrenoceptor.

Turning to `COc1cc(CNC[C@H](O)c2ccc(O)c3[nH]c(=O)ccc23)ccc1C(=O)N1CCC2(CCN(C(=O)COc3cccc([C@](O)(C(=O)OCC4CCN(Cc5ccccc5)CC4)c4ccccc4)c3)CC2)CC1` [Compound 81, (1-benzylpiperidin-4-yl)methyl (S)-2-hydroxy-2-(3-(2-(9-(4-((((R)-2-hydroxy-2-(8-hydroxy-2-oxo-1,2-dihydroquinolin-5-yl)ethyl)amino)methyl)-2-methoxybenzoyl)-3,9-diazaspiro[5.5]undecan-3-yl)-2-oxoethoxy)phenyl)-2-phenylacetate], the IC50 on Human M3 receptor and on Human β2 adrenoceptor was 0.3 to 3 nM in each case.

Consider `COc1cc(CNC[C@H](O)c2ccc(O)c3[nH]c(=O)ccc23)ccc1C(=O)N1CC(NC(=O)COc2cccc([C@](O)(C(=O)OCC3CCN(Cc4ccccc4)CC3)c3ccccc3)c2)C1` [Compound 82, (1-benzylpiperidin-4-yl)methyl (S)-2-hydroxy-2-(3-(2-((1-(4-((((R)-2-hydroxy-2-(8-hydroxy-2-oxo-1,2-dihydroquinolin-5-yl)ethyl)amino)methyl)-2-methoxybenzoyl)azetidin-3-yl)amino)-2-oxoethoxy)phenyl)-2-phenylacetate], for which the IC50 at Human M3 receptor and on Human β2 adrenoceptor was 0.3 to 3 nM each time.

As for `CN(CCNC(=O)c1ccc(CCNC[C@H](O)c2ccc(O)c3[nH]c(=O)ccc23)cc1)C(=O)COc1cccc([C@](O)(C(=O)OCC2CCN(Cc3ccccc3)CC2)c2ccccc2)c1` [Compound 84, (1-benzylpiperidin-4-yl)methyl (S)-2-hydroxy-2-(3-(2-((2-(4-(2-(((R)-2-hydroxy-2-(8-hydroxy-2-oxo-1,2-dihydroquinolin-5-yl)ethyl)amino)ethyl)benzamido)ethyl)(methyl)amino)-2-oxoethoxy)phenyl)-2-phenylacetate], the results for the IC50 at Human M3 receptor and on Human β2 adrenoceptor were > 3 nM and 0.3 to 3 nM, respectively.

As for `O=C(COc1cccc([C@](O)(C(=O)OCC2CCN(Cc3ccccc3)CC2)c2ccccc2)c1)NCCCNC(=O)c1ccc(CCNC[C@H](O)c2ccc(O)c3[nH]c(=O)ccc23)cc1` [Compound 85, (1-benzylpiperidin-4-yl)methyl (S)-2-hydroxy-2-(3-(2-((3-(4-(2-(((R)-2-hydroxy-2-(8-hydroxy-2-oxo-1,2-dihydroquinolin-5-yl)ethyl)amino)ethyl)benzamido)propyl)amino)-2-oxoethoxy)phenyl)-2-phenylacetate], the results for the IC50 at Human M3 receptor and on Human β2 adrenoceptor were 0.3 to 3 nM and < 0.3 nM, respectively.

In the case of `O=C(COc1cccc([C@](O)(C(=O)OCC2CCN(Cc3ccccc3)CC2)c2ccccc2)c1)N1CCN(C(=O)c2ccc(CCNC[C@H](O)c3ccc(O)c4[nH]c(=O)ccc34)cc2)CC1` [Compound 86, (1-benzylpiperidin-4-yl)methyl (S)-2-hydroxy-2-(3-(2-(4-(4-(2-(((R)-2-hydroxy-2-(8-hydroxy-2-oxo-1,2-dihydroquinolin-5-yl)ethyl)amino)ethyl)benzoyl)piperazin-1-yl)-2-oxoethoxy)phenyl)-2-phenylacetate], the IC50 on Human M3 receptor was 0.3 to 3 nM; on Human β2 adrenoceptor it was < 0.3 nM.

Take `O=C(NCCN(Cc1ccccc1)C(=O)COc1cccc([C@](O)(C(=O)OCC2CCN(Cc3ccccc3)CC2)c2ccccc2)c1)c1ccc(CCNC[C@H](O)c2ccc(O)c3[nH]c(=O)ccc23)cc1` [Compound 87, (1-benzylpiperidin-4-yl)methyl (S)-2-(3-(2-(benzyl(2-(4-(2-(((R)-2-hydroxy-2-(8-hydroxy-2-oxo-1,2-dihydroquinolin-5-yl)ethyl)amino)ethyl)benzamido)ethyl)amino)-2-oxoethoxy)phenyl)-2-hydroxy-2-phenylacetate]: the IC50 on Human M3 receptor and on Human β2 adrenoceptor was 0.3 to 3 nM each time.

`O=C(COc1cccc([C@](O)(C(=O)OCC2CCN(Cc3ccccc3)CC2)c2ccccc2)c1)N[C@H]1C[C@H](NC(=O)c2ccc(CCNC[C@H](O)c3ccc(O)c4[nH]c(=O)ccc34)cc2)C1` [Compound 88, (1-benzylpiperidin-4-yl)methyl (S)-2-hydroxy-2-(3-(2-(((1R,3S)-3-(4-(2-(((R)-2-hydroxy-2-(8-hydroxy-2-oxo-1,2-dihydroquinolin-5-yl)ethyl)amino)ethyl)benzamido)cyclobutyl)amino)-2-oxoethoxy)phenyl)-2-phenylacetate]: the IC50 at Human M3 receptor was < 0.3 nM; on Human β2 adrenoceptor, 0.3 to 3 nM.

Consider `O=C(NCC1CCN(C(=O)COc2cccc([C@](O)(C(=O)OCC3CCN(Cc4ccccc4)CC3)c3ccccc3)c2)CC1)c1ccc(CCNC[C@H](O)c2ccc(O)c3[nH]c(=O)ccc23)cc1` [Compound 89, (1-benzylpiperidin-4-yl)methyl (S)-2-hydroxy-2-(3-(2-(4-((4-(2-(((R)-2-hydroxy-2-(8-hydroxy-2-oxo-1,2-dihydroquinolin-5-yl)ethyl)amino)ethyl)benzamido)methyl)piperidin-1-yl)-2-oxoethoxy)phenyl)-2-phenylacetate], for which the IC50 on Human M3 receptor is 0.3 to 3 nM; at Human β2 adrenoceptor it was < 0.3 nM.
